Measured values as given in patent publication US9802960B2 (MILLENNIUM PHARMACEUTICALS, INC., priority 2014, dated 2017).

Target: Human VPS34 (Homo sapiens (Human), UniProt Q8NEB9)
Experiment: Human VPS34 enzyme assay (Adapta TR-FRET)
Assay type: biochemical
Conditions: compound concentration 1.11 μM; read-out: Percent Inhibition

Human VPS34, sequence (Q8NEB9 whole entry): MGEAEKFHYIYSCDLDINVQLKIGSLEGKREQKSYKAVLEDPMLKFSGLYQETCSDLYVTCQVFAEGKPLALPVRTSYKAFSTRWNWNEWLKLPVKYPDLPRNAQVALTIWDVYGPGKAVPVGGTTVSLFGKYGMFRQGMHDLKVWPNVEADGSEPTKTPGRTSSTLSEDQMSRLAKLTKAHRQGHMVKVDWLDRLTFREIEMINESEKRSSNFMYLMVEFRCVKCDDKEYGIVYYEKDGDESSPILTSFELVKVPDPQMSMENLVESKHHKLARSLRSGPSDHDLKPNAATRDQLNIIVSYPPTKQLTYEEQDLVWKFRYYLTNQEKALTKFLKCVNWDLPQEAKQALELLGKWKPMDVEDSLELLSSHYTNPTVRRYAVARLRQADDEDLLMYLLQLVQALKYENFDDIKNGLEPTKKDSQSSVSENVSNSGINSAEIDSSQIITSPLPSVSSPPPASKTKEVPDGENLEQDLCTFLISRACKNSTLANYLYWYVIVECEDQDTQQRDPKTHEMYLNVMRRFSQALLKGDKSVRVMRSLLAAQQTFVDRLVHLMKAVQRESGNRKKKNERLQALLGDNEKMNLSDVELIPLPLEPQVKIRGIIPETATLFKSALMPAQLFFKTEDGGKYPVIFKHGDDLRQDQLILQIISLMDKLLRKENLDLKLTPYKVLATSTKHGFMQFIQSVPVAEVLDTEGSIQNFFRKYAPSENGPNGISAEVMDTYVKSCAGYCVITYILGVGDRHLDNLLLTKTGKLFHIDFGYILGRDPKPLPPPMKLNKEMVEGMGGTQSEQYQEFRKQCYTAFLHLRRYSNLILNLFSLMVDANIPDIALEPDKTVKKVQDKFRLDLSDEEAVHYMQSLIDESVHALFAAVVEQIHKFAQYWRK

| inhibition at 1.11 µM [%] | SMILES |
| --- | --- |
| 59 | CC(=O)Nc1cc(-c2cnc3c(c2)S(=O)(=O)N[C@H](c2ccccc2)CO3)ccn1 [Compound I-420, (R)-N-(4-(1,1-dioxido-3-phenyl-3,4-dihydro-2H-pyrido[2,3-b][1,4,5]oxathiazepin-8-yl)pyridin-2-yl)acetamide] |
| 96 | Cc1nccc(Nc2cc(-c3cncc(C(C)Oc4ccccc4F)c3)ccn2)n1 (stereo not shown) [Compound I-422, 5-[1-(2-fluorophenoxy)ethyl]-N-(2-methylpyrimidin-4-yl)-3,4′-bipyridin-2′-amine] |
| > 99 | COc1ncc(-c2ccnc(NC(C)=O)c2)cc1C(=O)N(C)c1ccc(F)cc1F [Compound I-423, 2′-acetamido-N-(2,4-difluorophenyl)-6-methoxy-N-methyl-3,4′-bipyridine-5-carboxamide] |
| > 99 | Cc1nccc(Nc2cc(-c3cnc(C)c(OCCO)c3)ccn2)n1 [Compound I-424, 2-({6-methyl-2′-[(2-methylpyrimidin-4-yl)amino]-3,4′-bipyridin-5-yl}oxy)ethanol] |
| 100 | CC(=O)Nc1cc(-c2cnc(Cl)c(N3CCCS3(=O)=O)c2C)ccn1 [Compound I-425, N-[6-chloro-5-(1,1-dioxidoisothiazolidin-2-yl)-4-methyl-3,4′-bipyridin-2′-yl]acetamide] |
| > 99 | COc1ncc(-c2ccnc(NC(C)=O)c2)cc1S(=O)(=O)NC1CCC1 [Compound I-426, N-[5-(cyclobutylsulfamoyl)-6-methoxy-3,4′-bipyridin-2′-yl]acetamide] |
| > 99 | CN(C)S(=O)(=O)Nc1cc(-c2ccnc(Nc3ccnc(C4CC4)n3)c2)cn2nccc12 [Compound I-427, N′-(6-{2-[(2-cyclopropylpyrimidin-4-yl)amino]pyridin-4-yl}pyrazolo[1,5-a]pyridin-4yl)-N,N-dimethylsulfuric diamide] |
| > 99 | CC(=O)Nc1cc(-c2cc(OS(=O)(=O)N(C)C)c3ccnn3c2)ccn1 [Compound I-428, 6-(2-acetamidopyridin-4-yl)pyrazolo[1,5-a]pyridin-4-yl dimethylsulfamate] |
| 96 | CC(=O)Nc1cc(-c2cnc(Cl)c(NS(=O)(=O)c3ccc(C#N)cc3)c2C)ccn1 [Compound I-429, N-(6-chloro-5-{[(4-cyanophenyl)sulfonyl]amino}-4-methyl-3,4′-bipyridin-2′-yl)acetamide] |
| 92 | Cc1cnc(NC(=O)C2CC2)cc1-c1cnc(Cl)c(NS(=O)(=O)c2ccc(F)cc2F)c1C [Compound I-430, N-(6-chloro-5-{[(2,4-difluorophenyl)sulfonyl]amino}-4,5′-dimethyl-3,4′-bipyridin-2′-yl)cyclopropanecarboxamide] |
| 74 | CC(=O)Nc1cc(-c2cnc(C)c(C(=O)Nc3ccc(F)cc3F)c2)ccn1 [Compound I-431, 2′-acetamido-N-(2,4-difluorophenyl)-6-methyl-3,4′-bipyridine-5-carboxamide] |
| 98 | COc1ncc(-c2ccnc(NC(C)=O)c2)cc1S(=O)(=O)Nc1cc(Cl)ccc1Cl [Compound I-432, N-{5-[(2,5-dichlorophenyl)sulfamoyl]-6-methoxy-3,4′-bipyridin-2′-yl}acetamide] |
| 93 | Cc1ncc(-c2ccnc(NC(=O)C3CC3)c2)cc1NS(=O)(=O)c1ccc(Cl)cc1F [Compound I-433, N-(5-{[(4-chloro-2-fluorophenyl)sulfonyl]amino}-6-methyl-3,4′-bipyridin-2′-yl)cyclopropanecarboxamide] |
| 36 | CC(=O)Nc1cc(-c2cnc(Cl)c(C(=O)N3CCC3)c2)c(C)cn1 [Compound I-434] |

Second part, the molecule before the results:

| SMILES | inhibition at 1.11 µM [%] |
| --- | --- |
| CC(=O)Nc1cc(-c2cnc(C)c(Nc3nc4ccccc4o3)c2)ccn1 [Compound I-392, N-[5-(1,3-benzoxazol-2-ylamino)-6-methyl-3,4′-bipyridin-2′-yl]acetamide] | 82 |
| CC(=O)Nc1cc(-c2cncc(NS(=O)(=O)c3ccc(F)cc3F)c2Cl)ccn1 [Compound I-394, N-(4-chloro-5-{[(2,4-difluorophenyl)sulfonyl]amino}-3,4′-bipyridin-2′-yl)acetamide] | > 99 |
| CC(=O)Nc1cc(-c2cnc(C)c(S(N)(=O)=O)c2)ccn1 [Compound I-395, N-(6-methyl-5-sulfamoyl-3,4′-bipyridin-2′-yl)acetamide] | > 99 |
| CC(=O)Nc1cc(-c2cncc(S(=O)(=O)NC3CCC3)c2)ccn1 [Compound I-396, N-[5-(cyclobutylsulfamoyl)-3,4′-bipyridin-2′-yl]acetamide] | 94 |
| CC(=O)Nc1cc(-c2cncc(N(C)C(=O)c3ccc(F)cc3F)c2)ccn1 [Compound I-397, N-(2′-acetamido-3,4′-bipyridin-5-yl)-2,4-difluoro-N-methylbenzamide] | 100 |
| CC(=O)Nc1cc(-c2cnc(C)c(N(C)C(=O)c3ccc(F)cc3F)c2)ccn1 [Compound I-398, N-(2′-acetamido-6-methyl-3,4′-bipyridin-5-yl)-2,4-difluoro-N-methylbenzamide] | 93 |
| CC(=O)Nc1cc(-c2cnc(Cl)c(NS(=O)(=O)c3ccc(Cl)cc3F)c2C)ccn1 [Compound I-399, N-(6-chloro-5-{[(4-chloro-2-fluorophenyl)sulfonyl]amino}-4-methyl-3,4′-bipyridin-2′-yl)acetamide] | 100 |
| CC(=O)Nc1cc(-c2cnc(Cl)c(NS(=O)(=O)c3cc(Cl)ccc3Cl)c2C)ccn1 [Compound I-401, N-(6-chloro-5-{[(2,5-dichlorophenyl)sulfonyl]amino}-4-methyl-3,4′-bipyridin-2′-yl)acetamide] | > 99 |
| Cc1nccc(Nc2cc(-c3cnc(Cl)c(C(=O)O)c3C)ccn2)n1 [Compound I-402, 6-chloro-4-methyl-2′-[(2-methylpyrimidin-4-yl)amino]-3,4′-bipyridine-5-carboxylic acid] | 93 |
| CC(=O)Nc1cc(-c2cnc(Cl)c(S(=O)(=O)N[C@@H](CO)c3ccccc3)c2)ccn1 [Compound I-403, N-(6-chloro-5-{[(1R)-2-hydroxy-1-phenylethyl]sulfamoyl}-3,4′-bipyridin-2′-yl)acetamide] | 92 |
| CC(=O)Nc1cc(-c2cc(NS(=O)(=O)c3ccc(F)cc3F)c3ccnn3c2)ccn1 [Compound I-404, N-[4-(4-{[(2,4-difluorophenyl)sulfonyl]amino}pyrazolo[1,5-a]pyridin-6-yl)pyridin-2-yl]acetamide] | 94 |
| CC(=O)Nc1cc(-c2cncc(N3CCOc4cc(F)ccc4S3(=O)=O)c2)ccn1 [Compound I-405] | > 99 |
| Cc1nccc(Nc2cc(-c3cnc4c(c3)C(=O)NCC4)ccn2)n1 [Compound I-406, 3-[2-[(2-methylpyrimidin-4-yl)amino]-4-pyridyl]-7,8-dihydro-6H-1,6-naphthyridin-5-one] | 80 |
| Cc1nccc(Nc2cc(-c3cc(NC(=O)N4CC(F)(F)C4)c4ccnn4c3)ccn2)n1 [Compound I-407, 3,3-difluoro-N-(6-{2-[(2-methylpyrimidin-4-yl)amino]pyridin-4-yl}pyrazolo[1,5-a]pyridin-4-yl)azetidine-1-carboxamide] | 98 |
| Cc1nccc(Nc2cc(-c3cncc(C(=O)N4CC(F)(F)C4)c3)ccn2)n1 [Compound I-408, (3,3-difluoroazetidin-1-yl){2′-[(2-methylpyrimidin-4-yl)amino]-3,4′-bipyridin-5-yl}methanone] | > 99 |
| CC(=O)Nc1cc(-c2cnc(N)c(C(=O)NC(=N)N)c2)ccn1 [Compound I-409, 2′-acetamido-6-amino-N-carbamimidoyl-3,4′-bipyridine-5-carboxamide] | 82 |
| CC(=O)Nc1cc(-c2cnc(Cl)c(S(=O)(=O)NC(C)(C)C)c2C)ccn1 [Compound I-410, N-[5-(tert-butylsulfamoyl)-6-chloro-4-methyl-3,4′-bipyridin-2′-yl]acetamide] | 96 |
| CC(=O)Nc1cc(-c2cnc(C#N)c(NS(=O)(=O)c3ccc(F)cc3F)c2)ccn1 [Compound I-411, N-(6-cyano-5-{[(2,4-difluorophenyl)sulfonyl]amino}-3,4′-bipyridin-2′-yl)acetamide] | 88 |
| CC(=O)Nc1cc(-c2cnc(C)c(NS(=O)(=O)CC(F)F)c2)ccn1 [Compound I-412, N-(5-{[(2,2-difluoroethyl)sulfonyl]amino}-6-methyl-3,4′-bipyridin-2′-yl)acetamide] | 97 |
| O=C(c1cncc(-c2ccnc(Nc3ccnc(C4CC4)n3)c2)c1)N1CC(F)(F)C1 [Compound I-413] | > 99 |
| CC(=O)Nc1cc(-c2cnc(C)c(NS(=O)(=O)c3ccc(F)cc3F)c2)cc(C)n1 [Compound I-414, N-(5-{[(2,4-difluorophenyl)sulfonyl]amino}-6,6′-dimethyl-3,4′-bipyridin-2′-yl)acetamide] | 89 |
| Cc1nccc(Nc2cc(-c3cnc(C)c(C(=O)N4CC5(COC5)C4)c3)ccn2)n1 [Compound I-415, {6-methyl-2′-[(2-methylpyrimidin-4-yl)amino]-3,4′-bipyridin-5-yl}(2-oxa-6-azaspiro[3.3]hept-6-yl)methanone] | 82 |
| CC(=O)Nc1cc(-c2cnc(C)c(N3CC=CS3(=O)=O)c2)ccn1 [Compound I-416, N-[5-(1,1-dioxidoisothiazol-2(3H)-yl)-6-methyl-3,4′-bipyridin-2′-yl]acetamide] | > 99 |
| COC(=O)Nc1cc(-c2cnc(C)c(NS(=O)(=O)c3ccc(Cl)cc3F)c2)ccn1 [Compound I-417, methyl (5-{[(4-chloro-2-fluorophenyl)sulfonyl]amino}-6-methyl-3,4′-bipyridin-2′-yl)carbamate] | > 99 |
| CC(=O)Nc1cc(-c2cnc(C)c(S(=O)(=O)NC34CC(C3)C4)c2)ccn1 [Compound I-418, N-[5-(bicyclo[1.1.1]pent-1-ylsulfamoyl)-6-methyl-3,4′-bipyridin-2′-yl]acetamide] | > 99 |
| CC(=O)Nc1cc(-c2cncc(NC(=O)c3ccc(F)cc3F)c2)ccn1 [Compound I-419, N-(2′-acetamido-3,4′-bipyridin-5-yl)-2,4-difluorobenzamide] | 56 |
